From PMC10254530, “Design and Synthesis of Brefeldin A-Isothiocyanate Derivatives with Selectivity and Their Potential for Cervical Cancer Therapy” (Molecules, 2023)
Counter-ions that a name gives are not always drawn.

Key:
[1] = tested on: HepG2 cells; assay: CCK-8 antiproliferative assay, HepG2; assay type: cell-based; conditions: Homo sapiens, HepG2; CCK-8, 48 h, mean ± SD of three experiments; read-out: IC50 HepG2
Procedure: (§1) All cells were cultured in Dulbecco’s Modified Eagle’s Medium (DMEM) (Burlington, MA, USA) or Roswell Park Memorial Institute (RPMI)-1640 medium containing 10% fetal bovine serum and 1% penicillin/streptomycin in an incubator at 37 °C and 5% CO2. […] Cell suspension with a concentration of 8 × 10^4 cells/mL was prepared after cell counting. 100 μL cell suspension was added to each well of the 96-well plate and then placed in an incubator overnight. Most of the derivatives were configured into 80 mM, 20 mM or 4 mM stock solution in DMSO, and the stock solution concentration of BFA and paclitaxel was 0.4 mM. […] The medium in each well was discarded, and 100 μL of gradient diluted derivative solution was added (the control group was added with serum-free medium).

[2] = tested on: MDA-MB-231 cells; assay: CCK-8 antiproliferative assay, MDA-MB-231; assay type: cell-based; conditions: Homo sapiens, MDA-MB-231; CCK-8, 48 h, mean ± SD of three experiments; read-out: IC50 MDA-MB-231
Procedure: as §1

[3] = tested on: A375 cells; assay: CCK-8 antiproliferative assay, A375; assay type: cell-based; conditions: Homo sapiens, A-375; CCK-8, 48 h, mean ± SD of three experiments; read-out: IC50 A375
Procedure: as §1

[4] = tested on: A549 cells; assay: CCK-8 antiproliferative assay, A549; assay type: cell-based; conditions: Homo sapiens, A549; CCK-8, 48 h, mean ± SD of three experiments; read-out: IC50 A549
Procedure: as §1

[5] = tested on: HeLa cells; assay: CCK-8 antiproliferative assay, HeLa; assay type: cell-based, human; conditions: for IC50: Homo sapiens, HeLa, CCK-8, 48 h, mean ± SD of three experiments, read-out: IC50 HeLa; for SIHeLa, selectivity index between L-02 and HeLa: SI = IC50(L-02)/IC50(HeLa)
Procedure: as §1

[6] = tested on: L-02 cells; assay: CCK-8 cytotoxicity assay, normal liver L-02; assay type: cell-based; conditions: Homo sapiens, L02; CCK-8, 48 h, normal liver cells, mean ± SD of three experiments; read-out: IC50 L-02
Procedure: as §1

Structure (SMILES)	IC50 [1]	IC50 [2]	IC50 [3]	IC50 [4]	IC50 [5]	IC50 [6]	SIHeLa, selectivity index between L-02 and HeLa [5]
C[C@H]1CCC/C=C/[C@@H]2C[C@H](O)C[C@H]2[C@H](OC(=O)CCC(=O)OCCOCCOC(=O)c2ccc(N=C=S)cc2)/C=C/C(=O)O1 [Compound 9d, (1R,2E,6S,10E,11aS,13S,14aR)-13-Hydroxy-6-methyl-4-oxo-1,6,7,8,9,11a,12,13,14,14a-decahydro-4H-cyclopenta[f][1]oxacyclotridecin-1-yl (2-(2-((4-isothiocyanatobenzoyl)oxy)ethoxy)ethyl) succinate]	2.34 ± 0.31 µM	2.05 ± 0.27 µM	2.93 ± 0.12 µM	2.85 ± 0.1 µM	0.99 ± 0.02 µM	9.18 ± 0.13 µM	–
C[C@H]1CCC/C=C/[C@@H]2C[C@H](OC(=O)CCC(=O)OCCCCOC(=O)c3ccc(N=C=S)cc3)C[C@H]2[C@H](OC(=O)CCC(=O)OCCCCOC(=O)c2ccc(N=C=S)cc2)/C=C/C(=O)O1 [Compound 8b, Bis(4-((4-isothiocyanatobenzoyl)oxy)butyl) O,O’-((1R,2E,6S,10E,11aS,13S,14aR)-6-methyl-4-oxo-1,6,7,8,9,11a,12,13,14,14a-decahydro-4H-cyclopenta[f][1]oxacyclotridecine-1,13-diyl) disuccinate]	> 40 µM	> 40 µM	> 40 µM	> 40 µM	16.4 ± 1.35 µM	> 80 µM	>4.88
C[C@H]1CCC/C=C/[C@@H]2C[C@H](O)C[C@H]2[C@H](OC(=O)CCC(=O)Oc2ccc(OC(=O)c3ccc(N=C=S)cc3)cc2)/C=C/C(=O)O1 [Compound 9f, (1R,2E,6S,10E,11aS,13S,14aR)-13-Hydroxy-6-methyl-4-oxo-1,6,7,8,9,11a,12,13,14,14a-decahydro-4H-cyclopenta[f][1]oxacyclotridecin-1-yl (4-((4-isothiocyanatobenzoyl)oxy)phenyl) succinate]	27.7 ± 0.47 µM	32.1 ± 1.03 µM	21.3 ± 0.33 µM	16.18 ± 0.06 µM	13.1 ± 0.45 µM	25.1 ± 0.82 µM	1.91
C[C@H]1CCC/C=C/[C@@H]2C[C@H](OC(=O)/C=C\C(=O)OCCCCCCOC(=O)c3ccc(N=C=S)cc3)C[C@H]2[C@H](OC(=O)/C=C\C(=O)OCCCCCCOC(=O)c2ccc(N=C=S)cc2)/C=C/C(=O)O1 [Compound 8k, Bis(6-((4-isothiocyanatobenzoyl)oxy)hexyl) O,O’-((1R,2E,6S,10E,11aS,13S,14aR)-6-methyl-4-oxo-1,6,7,8,9,11a,12,13,14,14a-decahydro-4H-cyclopenta[f][1]oxacyclotridecine-1,13-diyl) dimaleate]	> 40 µM	> 40 µM	> 40 µM	> 40 µM	> 40 µM	> 80 µM	–
C[C@H]1CCC/C=C/[C@@H]2C[C@H](OC(=O)CCC(=O)Oc3ccc(OC(=O)c4ccc(N=C=S)cc4)cc3)C[C@H]2[C@H](OC(=O)CCC(=O)Oc2ccc(OC(=O)c3ccc(N=C=S)cc3)cc2)/C=C/C(=O)O1 [Compound 8f, Bis(4-((4-isothiocyanatobenzoyl)oxy)phenyl) O,O’-((1R,2E,6S,10E,11aS,13S,14aR)-6-methyl-4-oxo-1,6,7,8,9,11a,12,13,14,14a-decahydro-4H-cyclopenta[f][1]oxacyclotridecine-1,13-diyl) disuccinate]	> 40 µM	> 40 µM	> 40 µM	> 40 µM	> 40 µM	> 80 µM	–
C[C@H]1CCC/C=C/[C@@H]2C[C@H](O)C[C@H]2[C@H](OC(=O)/C=C\C(=O)OCCCCOC(=O)c2ccc(N=C=S)cc2)/C=C/C(=O)O1 [Compound 9h, (1R,2E,6S,10E,11aS,13S,14aR)-13-Hydroxy-6-methyl-4-oxo-1,6,7,8,9,11a,12,13,14,14a-decahydro-4H-cyclopenta[f][1]oxacyclotridecin-1-yl (4-((4-isothiocyanatobenzoyl)oxy)butyl) maleate]	13.27 ± 0.1 µM	5.71 ± 0.2 µM	11.2 ± 0.29 µM	8.54 ± 0.26 µM	9.68 ± 0.24 µM	27.8 ± 1.39 µM	2.87
C[C@H]1CCC/C=C/[C@@H]2C[C@H](O)C[C@H]2[C@H](O)/C=C/C(=O)O1 [BFA, Brefeldin A]	0.12 ± 0.01 µM	0.054 ± 0.001 µM	0.039 ± 0.001 µM	0.056 ± 0.002 µM	0.044 ± 0.004 µM	0.094 ± 0.004 µM	2.14
C[C@H]1CCC/C=C/[C@@H]2C[C@H](OC(=O)c3ccc(N=C=S)cc3)C[C@H]2[C@H](O)/C=C/C(=O)O1 [Compound 7, (1R,2E,6S,10E,11aS,13S,14aR)-1-Hydroxy-6-methyl-4-oxo-1,6,7,8,9,11a,12,13,14,14a-decahydro-4H-cyclopenta[f][1]oxacyclotridecin-13-yl 4-isothiocyanatobenzoate]	> 40 µM	17 ± 1.21 µM	5.78 ± 0.1 µM	20.4 ± 1.31 µM	3.02 ± 0.23 µM	8.6 ± 0.71 µM	2.85
C[C@H]1CCC/C=C/[C@@H]2C[C@H](OC(=O)CCC(=O)OCC#CCOC(=O)c3ccc(N=C=S)cc3)C[C@H]2[C@H](OC(=O)CCC(=O)OCC#CCOC(=O)c2ccc(N=C=S)cc2)/C=C/C(=O)O1 [Compound 8c, Bis(4-((4-isothiocyanatobenzoyl)oxy)but-2-yn-1-yl) O,O’-((1R,2E,6S,10E,11aS,13S,14aR)-6-methyl-4-oxo-1,6,7,8,9,11a,12,13,14,14a-decahydro-4H-cyclopenta[f][1]oxacyclotridecine-1,13-diyl) disuccinate]	> 40 µM	> 40 µM	> 40 µM	> 40 µM	39 ± 1.43 µM	> 80 µM	>2.05
C[C@H]1CCC/C=C/[C@@H]2C[C@H](O)C[C@H]2[C@H](OC(=O)/C=C\C(=O)OCCCCCCOC(=O)c2ccc(N=C=S)cc2)/C=C/C(=O)O1 [Compound 9k, (1R,2E,6S,10E,11aS,13S,14aR)-13-Hydroxy-6-methyl-4-oxo-1,6,7,8,9,11a,12,13,14,14a-decahydro-4H-cyclopenta[f][1]oxacyclotridecin-1-yl (6-((4-isothiocyanatobenzoyl)oxy)hexyl) maleate]	3.28 ± 0.27 µM	2.61 ± 0.08 µM	7.27 ± 0.57 µM	8.34 ± 0.24 µM	2.39 ± 0.1 µM	23.9 ± 1.23 µM	–
C[C@H]1CCC/C=C/[C@@H]2C[C@H](OC(=O)CCC(=O)OCCCCCCOC(=O)c3ccc(N=C=S)cc3)C[C@H]2[C@H](OC(=O)CCC(=O)OCCCCCCOC(=O)c2ccc(N=C=S)cc2)/C=C/C(=O)O1 [Compound 8e, Bis(6-((4-isothiocyanatobenzoyl)oxy)hexyl) O,O’-((1R,2E,6S,10E,11aS,13S,14aR)-6-methyl-4-oxo-1,6,7,8,9,11a,12,13,14,14a-decahydro-4H-cyclopenta[f][1]oxacyclotridecine-1,13-diyl) disuccinate]	> 40 µM	> 40 µM	> 40 µM	> 40 µM	26.8 ± 0.7 µM	> 80 µM	>2.99
C[C@H]1CCC/C=C/[C@@H]2C[C@H](OC(=O)CCC(=O)OCCOC(=O)c3ccc(N=C=S)cc3)C[C@H]2[C@H](OC(=O)CCC(=O)OCCOC(=O)c2ccc(N=C=S)cc2)/C=C/C(=O)O1 [Compound 8a, Bis(2-((4-isothiocyanatobenzoyl)oxy)ethyl) O,O’-((1R,2E,6S,10E,11aS,13S,14aR)-6-methyl-4-oxo-1,6,7,8,9,11a,12,13,14,14a-decahydro-4H-cyclopenta[f][1]oxacyclotridecine-1,13-diyl) disuccinate]	> 40 µM	> 40 µM	> 40 µM	> 40 µM	12 ± 1.47 µM	> 80 µM	>6.68
C[C@H]1CCC/C=C/[C@@H]2C[C@H](O)C[C@H]2[C@H](OC(=O)CCC(=O)OCCCCOC(=O)c2ccc(N=C=S)cc2)/C=C/C(=O)O1 [Compound 9b, (1R,2E,6S,10E,11aS,13S,14aR)-13-Hydroxy-6-methyl-4-oxo-1,6,7,8,9,11a,12,13,14,14a-decahydro-4H-cyclopenta[f][1]oxacyclotridecin-1-yl (4-((4-isothiocyanatobenzoyl)oxy)butyl) succinate]	6.54 ± 0.18 µM	2.23 ± 0.04 µM	2.79 ± 0.25 µM	2.84 ± 0.02 µM	2.28 ± 0.04 µM	10.6 ± 0.6 µM	4.63
CC(=O)O[C@H]1C(=O)[C@@]2(C)[C@H]([C@H](OC(=O)c3ccccc3)[C@]3(O)C[C@H](OC(=O)[C@H](O)[C@@H](NC(=O)c4ccccc4)c4ccccc4)C(C)=C1C3(C)C)[C@]1(OC(C)=O)CO[C@@H]1C[C@@H]2O [paclitaxel, reference compound]	0.55 ± 0.03 µM	0.33 ± 0.03 µM	0.059 ± 0.001 µM	0.014 ± 0.002 µM	0.034 ± 0.002 µM	0.13 µM	3.82
